Measured values taken from the supplement of paper PMC10307832.

Key:
Experiment in all cases: relative viability (nuclei count vs DMSO), 5 days (fraction); higher = more cells survive
[1] = compound: CC1=C(N=C(N=C1N)[C@H](CC(=O)N)NC[C@@H](C(=O)N)N)C(=O)N[C@@H]([C@H](C2=CN=CN2)OC3C(C(C(C(O3)CO)O)O)OC4C(C(C(C(O4)CO)O)OC(=O)N)O)C(=O)N[C@H](C)[C@H]([C@H](C)C(=O)N[C@@H]([C@@H](C)O)C(=O)NCCC5=NC(=CS5)C6=NC(=CS6)C(=O)NCCC[S+](C)C)O [Bleomycin] + CCNC(=O)c1noc(-c2cc(C(C)C)c(O)cc2O)c1-c1ccc(CN2CCOCC2)cc1 [Luminespib] (partner 0.01 µM); conditions: main component drawn
How it was run: (§1)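 Cells from lung cancer lines were seeded into 1536-well plates and, one day later, dosed by pin tool. Treatments were either a single drug or a fixed dose of an anchor drug with five library-drug doses (not always all listed) in √10 steps. After 5 days, nuclei were stained in a one-step fixation (final 0.05% Triton X-100, 1% formaldehyde, 1 ug/ml Hoechst) and counted on 4× images, and relative viability is the treated-to-vehicle nuclei ratio, as the median of duplicate plates.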

[2] = compound: CC1=C(N=C(N=C1N)[C@H](CC(=O)N)NC[C@@H](C(=O)N)N)C(=O)N[C@@H]([C@H](C2=CN=CN2)OC3C(C(C(C(O3)CO)O)O)OC4C(C(C(C(O4)CO)O)OC(=O)N)O)C(=O)N[C@H](C)[C@H]([C@H](C)C(=O)N[C@@H]([C@@H](C)O)C(=O)NCCC5=NC(=CS5)C6=NC(=CS6)C(=O)NCCC[S+](C)C)O [Bleomycin] + Cc1nc(Nc2ncc(C(=O)Nc3c(C)cccc3Cl)s2)cc(N2CCN(CCO)CC2)n1 [Dasatinib] (partner 0.075 µM); conditions: main component drawn
How it was run: as §1

[3] = compound: CC1=C(N=C(N=C1N)[C@H](CC(=O)N)NC[C@@H](C(=O)N)N)C(=O)N[C@@H]([C@H](C2=CN=CN2)OC3C(C(C(C(O3)CO)O)O)OC4C(C(C(C(O4)CO)O)OC(=O)N)O)C(=O)N[C@H](C)[C@H]([C@H](C)C(=O)N[C@@H]([C@@H](C)O)C(=O)NCCC5=NC(=CS5)C6=NC(=CS6)C(=O)NCCC[S+](C)C)O [Bleomycin] + CC(C)C[C@H](NC(=O)[C@H](Cc1ccccc1)NC(=O)c1cnccn1)B(O)O [Bortezomib] (partner 0.002 µM); conditions: main component drawn
How it was run: as §1

[4] = compound: COc1cc([C@@H]2c3cc4c(cc3[C@@H](O[C@@H]3O[C@@H]5CO[C@@H](C)O[C@H]5[C@H](O)[C@H]3O)[C@H]3COC(=O)[C@H]23)OCO4)cc(OC)c1O [Etoposide] + CS(=O)(=O)CCNCc1ccc(-c2ccc3ncnc(Nc4ccc(OCc5cccc(F)c5)c(Cl)c4)c3c2)o1 [Lapatinib] (partner 2 µM)
How it was run: as §1

## UMC-11
[1]; first compound 0.01 µM
  relative viability: 0.914
[1]; first compound 0.03162 µM
  relative viability: 1.05
[1]; first compound 0.1 µM
  relative viability: 0.893
[1]; first compound 0.3162 µM
  relative viability: 0.65
[1]; first compound 1 µM
  relative viability: 0.539
[2]; first compound 0.01 µM
  relative viability: 0.448
[2]; first compound 0.03162 µM
  relative viability: 0.511
[2]; first compound 0.1 µM
  relative viability: 0.495
[2]; first compound 0.3162 µM
  relative viability: 0.385
[2]; first compound 1 µM
  relative viability: 0.328
[3]; first compound 0.01 µM
  relative viability: 0.626
[3]; first compound 0.03162 µM
  relative viability: 0.587
[3]; first compound 0.1 µM
  relative viability: 0.576
[3]; first compound 0.3162 µM
  relative viability: 0.477
[3]; first compound 1 µM
  relative viability: 0.304
[4]; first compound 0.01 µM
  relative viability: 0.973
[4]; first compound 0.03162 µM
  relative viability: 1.05
[4]; first compound 0.1 µM
  relative viability: 0.407
[4]; first compound 0.3162 µM
  relative viability: 0.46
[4]; first compound 1 µM
  relative viability: 0.239
